In patent US9328083B2, “2-aminated methylene or 2-esterified methylene tanshinone derivatives, and preparation method and application thereof” (HANGZHOU BENSHENG PHARMACEUTICAL CO., LTD., priority 2011, dated 2016):
Converted amounts (≈) assume the structure as drawn.

Tests used:
[1] = system: H9 (acute lymphoblastic leukemia, ALL); assay: MTT growth inhibition of leukemia cells, 72 h; format: cell-based, human; conditions: for IC50 / IC90: Homo sapiens, H9, 72 h; for IC50: read-out: IC50; for IC90: read-out: IC90
In short: (§1)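 6000 cells/well, RPMI-1640 + 10% FBS; compounds added day 2 (DMSO stock 10 mg/mL, diluted in medium); 72 h, 37 °C, 5% CO2; MTT read-out of viable cells.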

[2] = system: Jurkat (acute lymphoblastic leukemia, ALL); assay: MTT growth inhibition of leukemia cells, 72 h; format: cell-based, human; conditions: Homo sapiens, 72 h; for IC50: read-out: IC50; for IC90: read-out: IC90
In short: as §1

[3] = system: K562/adr (drug-resistant, chronic myeloid leukemia, CML); assay: MTT growth inhibition of leukemia cells, 72 h; format: cell-based, human; conditions: Homo sapiens, K562/Adr; for IC50: read-out: IC50; for IC90: read-out: IC90
In short: as §1

[4] = system: Kasumi-1 (acute myeloid leukemia M2 type, AML-M2); assay: MTT growth inhibition of leukemia cells, 72 h; format: cell-based, human; conditions: Homo sapiens, Kasumi-1, 72 h; for IC50: read-out: IC50; for IC90: read-out: IC90
In short: as §1

[5] = system: NB4 (acute promyelocytic leukemia, AML); assay: MTT growth inhibition of leukemia cells, 72 h; format: cell-based, human; conditions: for IC50 / IC90: Homo sapiens, NB4, 72 h; for IC50: read-out: IC50; for IC90: read-out: IC90
In short: as §1

[6] = system: RPMI8226 (multiple myeloma); assay: MTT growth inhibition of multiple myeloma cells, 72 h; format: cell-based, human; conditions: Homo sapiens, RPMI 8226, 72 h; for IC50: read-out: IC50; for IC90: read-out: IC90
In short: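 Viability read by MTT after 72 h at 37° C, 5% CO2: compounds from a 10 mg/mL DMSO stock were diluted in medium and added at several concentrations to 6000 RPMI8226 cells per well in 1640 medium plus 10% FBS.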

A549 (human lung cancer) = assay: MTT growth inhibition of human solid tumor cells, 72 h; format: cell-based; conditions: Homo sapiens, A549, 72 h; for IC50: read-out: IC50; for IC90: read-out: IC90
In short: (§2)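 Seeded cells (4000/well) pre-grown 24 h in high-glucose DMEM with 10% FBS at 37° C, 5% CO2, then exposed to graded derivative concentrations.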

[7] = system: Becap37 (human breast cancer cell); assay: as above; format: cell-based; conditions: Homo sapiens, Becap-37, 72 h; for IC50: read-out: IC50; for IC90: read-out: IC90
In short: as §2

[8] = system: CNE (nasopharyngeal carcinoma cell); assay: as above; format: cell-based; conditions: Homo sapiens; for IC50: read-out: IC50; for IC90: read-out: IC90
In short: as §2

[9] = system: CaES-17 (esophageal cancer cell); assay: as above; format: cell-based; conditions: Homo sapiens, CaEs17, CaEs-17, 72 h; for IC50: read-out: IC50; for IC90: read-out: IC90
In short: as §2

[10] = system: Hela (human cervical cancer cell); assay: as above; format: cell-based; conditions: Homo sapiens, HeLa, 72 h; for IC50: read-out: IC50; for IC90: read-out: IC90
In short: as §2

[11] = system: Hep G2 (human liver cancer cell); assay: as above; format: cell-based; conditions: Homo sapiens, HepG2, Hep G2, 72 h; for IC50: read-out: IC50; for IC90: read-out: IC90
In short: as §2

[12] = system: Hep-2 (laryngeal carcinoma); assay: as above; format: cell-based; conditions: Homo sapiens, HEp-2, 72 h; for IC50: read-out: IC50; for IC90: read-out: IC90
In short: as §2

MG63 (osteosarcoma) = assay: as above; format: cell-based; conditions: Homo sapiens, MG-63, 72 h; for IC50: read-out: IC50; for IC90: read-out: IC90
In short: as §2

[13] = system: MGC 803 (human gastric cancer cell); assay: as above; format: cell-based; conditions: Homo sapiens, MGC-803, 72 h; for IC50: read-out: IC50; for IC90: read-out: IC90
In short: as §2

[14] = system: PANC-1 (pancreatic cancer); assay: as above; format: cell-based; conditions: Homo sapiens, PANC-1, 72 h; for IC50: read-out: IC50; for IC90: read-out: IC90
In short: as §2

PC-3 (prostate cancer) = assay: as above; format: cell-based; conditions: Homo sapiens, PC-3, 72 h; for IC50: read-out: IC50; for IC90: read-out: IC90
In short: as §2

[15] = system: RKO (human colon adenocarcinoma cell); assay: as above; format: cell-based; conditions: Homo sapiens; for IC50: read-out: IC50; for IC90: read-out: IC90
In short: as §2

[16] = system: SK-OV-3 (ovarian cancer cell); assay: as above; format: cell-based; conditions: Homo sapiens, SK-OV-3, 72 h; for IC50: read-out: IC50; for IC90: read-out: IC90
In short: as §2

[17] = system: U87 MG (malignant glioma cell); assay: as above; format: cell-based; conditions: for IC50 / IC90: Homo sapiens, U-87 MG, U87-MG, 72 h; for IC50: read-out: IC50; for IC90: read-out: IC90
In short: as §2

## Cc1c(CNCCC(C)(C)C)oc2c1C(=O)C(=O)c1c-2ccc2c(C)cccc12 [BS-TA-B14]
[1]
  IC50: 2 µg/mL (≈ 5.13 µM)
  IC90: 11.9 µg/mL (≈ 30.6 µM)
[2]
  IC50: 6.66 µg/mL (≈ 17.1 µM)
  IC90: > 16 µg/mL
[3]
  IC50: 0.77 µg/mL (≈ 1.98 µM)
  IC90: 1.82 µg/mL (≈ 4.67 µM)
[4]
  IC50: 0.6 µg/mL (≈ 1.54 µM)
  IC90: 1.99 µg/mL (≈ 5.11 µM)
[5]
  IC50: 3.59 µg/mL (≈ 9.22 µM)
  IC90: 13.7 µg/mL (≈ 35.2 µM)
[6]
  IC50: 8 µg/mL (≈ 20.5 µM)
  IC90: > 16 µg/mL
A549 (human lung cancer)
  IC50: 1.75 µg/mL (≈ 4.49 µM)
  IC90: 9 µg/mL (≈ 23.1 µM)
[7]
  IC50: 4.6 µg/mL (≈ 11.8 µM)
  IC90: > 16 µg/mL
[8]
  IC50: > 16 µg/mL
  IC90: > 16 µg/mL
[9]
  IC50: > 16 µg/mL
  IC90: > 16 µg/mL
[10]
  IC50: 5.28 µg/mL (≈ 13.6 µM)
  IC90: 84.2 µg/mL (≈ 216 µM)
[11]
  IC50: 16 µg/mL (≈ 41.1 µM)
  IC90: > 16 µg/mL
[12]
  IC50: 14.3 µg/mL (≈ 36.7 µM)
  IC90: 35.2 µg/mL (≈ 90.5 µM)
MG63 (osteosarcoma)
  IC50: 4.86 µg/mL (≈ 12.5 µM)
  IC90: > 16 µg/mL
[13]
  IC50: 14.4 µg/mL (≈ 37 µM)
  IC90: > 16 µg/mL
[14]
  IC50: 1.88 µg/mL (≈ 4.83 µM)
  IC90: 6.19 µg/mL (≈ 15.9 µM)
PC-3 (prostate cancer)
  IC50: 14.7 µg/mL (≈ 37.6 µM)
  IC90: > 16 µg/mL
[15]
  IC50: 3.36 µg/mL (≈ 8.63 µM)
  IC90: > 16 µg/mL
[16]
  IC50: > 16 µg/mL
  IC90: > 16 µg/mL
[17]
  IC50: 3.85 µg/mL (≈ 9.88 µM)
  IC90: > 16 µg/mL

## Cc1c(CNCCO)oc2c1C(=O)C(=O)c1c-2ccc2c(C)cccc12 [BS-TA-65]
[1]; H9, vs tanshinone I
  improvement of anti-H9 activity as compared with tanshinone I: 27 fold
[1]
  IC50: 0.13 µg/mL (≈ 0.372 µM)
  IC90: 0.41 µg/mL (≈ 1.17 µM)
[2]
  IC50: 0.17 µg/mL (≈ 0.487 µM)
  IC90: 0.47 µg/mL (≈ 1.35 µM)
[3]
  IC50: 0.16 µg/mL (≈ 0.458 µM)
  IC90: 1.08 µg/mL (≈ 3.09 µM)
[4]
  IC50: 0.074 µg/mL (≈ 0.212 µM)
  IC90: 0.12 µg/mL (≈ 0.343 µM)
[5]
  IC50: 0.04 µg/mL (≈ 0.114 µM)
  IC90: 0.08 µg/mL (≈ 0.229 µM)
[5]; NB4, vs tanshinone I
  improvement of anti-NB4 activity as compared with tanshinone I: 24 fold
[6]
  IC50: 0.125 µg/mL (≈ 0.358 µM)
  IC90: 0.25 µg/mL (≈ 0.716 µM)
A549 (human lung cancer)
  IC50: 0.979 µg/mL (≈ 2.8 µM)
  IC90: 3.52 µg/mL (≈ 10.1 µM)
[7]
  IC50: 0.27 µg/mL (≈ 0.773 µM)
  IC90: 0.68 µg/mL (≈ 1.95 µM)
[8]
  IC50: 0.6 µg/mL (≈ 1.72 µM)
  IC90: 1.8 µg/mL (≈ 5.15 µM)
[9]
  IC50: 0.3 µg/mL (≈ 0.859 µM)
  IC90: 0.81 µg/mL (≈ 2.32 µM)
[10]
  IC50: 0.42 µg/mL (≈ 1.2 µM)
  IC90: 1 µg/mL (≈ 2.86 µM)
[11]
  IC50: 0.31 µg/mL (≈ 0.887 µM)
  IC90: 1.5 µg/mL (≈ 4.29 µM)
[12]
  IC50: 0.78 µg/mL (≈ 2.23 µM)
  IC90: 2.38 µg/mL (≈ 6.81 µM)
MG63 (osteosarcoma)
  IC50: 0.31 µg/mL (≈ 0.887 µM)
  IC90: 0.98 µg/mL (≈ 2.8 µM)
[13]
  IC50: 0.15 µg/mL (≈ 0.429 µM)
  IC90: 1.7 µg/mL (≈ 4.87 µM)
[14]
  IC50: 0.26 µg/mL (≈ 0.744 µM)
  IC90: 1.9 µg/mL (≈ 5.44 µM)
PC-3 (prostate cancer)
  IC50: 0.44 µg/mL (≈ 1.26 µM)
  IC90: 3.58 µg/mL (≈ 10.2 µM)
[15]
  IC50: 0.037 µg/mL (≈ 0.106 µM)
  IC90: 0.29 µg/mL (≈ 0.83 µM)
[16]
  IC50: 0.86 µg/mL (≈ 2.46 µM)
  IC90: 1.91 µg/mL (≈ 5.47 µM)
[17]
  IC50: 0.15 µg/mL (≈ 0.429 µM)
  IC90: 0.35 µg/mL (≈ 1 µM)
[17]; U87 MG, vs tanshinone I
  improvement of anti-U87 MG activity as compared with tanshinone I: more than 42 fold

## COC(=O)/C=C/C(=O)OCCN(C)Cc1oc2c(c1C)C(=O)C(=O)c1c-2ccc2c(C)cccc12 [BS-TA-74]
[1]
  IC50: 0.25 µg/mL (≈ 0.526 µM)
  IC90: 1.49 µg/mL (≈ 3.13 µM)
[2]
  IC50: 0.96 µg/mL (≈ 2.02 µM)
  IC90: 1.86 µg/mL (≈ 3.91 µM)
[3]
  IC50: 0.8 µg/mL (≈ 1.68 µM)
  IC90: 1.8 µg/mL (≈ 3.79 µM)
[4]
  IC50: 0.26 µg/mL (≈ 0.547 µM)
  IC90: 1.57 µg/mL (≈ 3.3 µM)
[5]
  IC50: 0.19 µg/mL (≈ 0.4 µM)
  IC90: 0.49 µg/mL (≈ 1.03 µM)
[6]
  IC50: 0.45 µg/mL (≈ 0.946 µM)
  IC90: 1.78 µg/mL (≈ 3.74 µM)
A549 (human lung cancer)
  IC50: 1.79 µg/mL (≈ 3.76 µM)
  IC90: 6.05 µg/mL (≈ 12.7 µM)
[7]
  IC50: 0.85 µg/mL (≈ 1.79 µM)
  IC90: 1.81 µg/mL (≈ 3.81 µM)
[8]
  IC50: 1.39 µg/mL (≈ 2.92 µM)
  IC90: 2.91 µg/mL (≈ 6.12 µM)
[9]
  IC50: 1.09 µg/mL (≈ 2.29 µM)
  IC90: 1.86 µg/mL (≈ 3.91 µM)
[10]
  IC50: 1.15 µg/mL (≈ 2.42 µM)
  IC90: 3.59 µg/mL (≈ 7.55 µM)
[11]
  IC50: 1.35 µg/mL (≈ 2.84 µM)
  IC90: 5.26 µg/mL (≈ 11.1 µM)
[12]
  IC50: 1.28 µg/mL (≈ 2.69 µM)
  IC90: 3.67 µg/mL (≈ 7.72 µM)
MG63 (osteosarcoma)
  IC50: 1.02 µg/mL (≈ 2.15 µM)
  IC90: 3.26 µg/mL (≈ 6.86 µM)
[13]
  IC50: 0.8 µg/mL (≈ 1.68 µM)
  IC90: 3.87 µg/mL (≈ 8.14 µM)
[14]
  IC50: 0.87 µg/mL (≈ 1.83 µM)
  IC90: 11.1 µg/mL (≈ 23.3 µM)
PC-3 (prostate cancer)
  IC50: 1.71 µg/mL (≈ 3.6 µM)
  IC90: 8.19 µg/mL (≈ 17.2 µM)
[15]
  IC50: 0.28 µg/mL (≈ 0.589 µM)
  IC90: 2.88 µg/mL (≈ 6.06 µM)
[16]
  IC50: 3.96 µg/mL (≈ 8.33 µM)
  IC90: 7.99 µg/mL (≈ 16.8 µM)
[17]
  IC50: 0.86 µg/mL (≈ 1.81 µM)
  IC90: 1.83 µg/mL (≈ 3.85 µM)
